For 18 molecules, Ratio, Activity and CC50 results are on record in ChEMBL document CHEMBL1649425, “A-CD estrogens. I. Substituent effects, hormone potency, and receptor subtype selectivity in a new family of flexible estrogenic compounds” (J Med Chem, 2011).

Data set [1] is filed under the species Homo sapiens. The data set can be described thus: Selectivity ratio of relative binding affinity for human ERbeta to relative binding affinity for human ERalpha.
The target in data set [2] is T1, Estrogen receptor (Homo sapiens) (UniProt P03372).
T1 sequence (whole entry): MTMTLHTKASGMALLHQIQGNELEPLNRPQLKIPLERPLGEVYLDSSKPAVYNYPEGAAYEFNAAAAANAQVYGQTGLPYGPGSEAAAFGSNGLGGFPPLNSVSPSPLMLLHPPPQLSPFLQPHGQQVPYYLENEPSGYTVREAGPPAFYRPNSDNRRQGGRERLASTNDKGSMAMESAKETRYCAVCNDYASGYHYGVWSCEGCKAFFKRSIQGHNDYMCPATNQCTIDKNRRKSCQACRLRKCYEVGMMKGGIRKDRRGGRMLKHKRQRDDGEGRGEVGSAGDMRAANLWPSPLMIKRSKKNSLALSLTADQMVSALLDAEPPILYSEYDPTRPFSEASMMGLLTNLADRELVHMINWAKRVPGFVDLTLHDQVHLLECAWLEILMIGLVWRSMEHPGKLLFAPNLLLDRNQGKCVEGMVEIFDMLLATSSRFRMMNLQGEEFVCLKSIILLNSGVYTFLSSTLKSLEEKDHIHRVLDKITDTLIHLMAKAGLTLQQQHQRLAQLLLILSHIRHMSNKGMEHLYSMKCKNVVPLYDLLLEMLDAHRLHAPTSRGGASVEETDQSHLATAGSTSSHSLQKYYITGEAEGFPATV
The data set can be described thus: Activity at human ERalpha expressed in HEK293 cells assessed as relative transcription activation by estrogen response element-lucifease assay relative to estradiol. Also on record: concentration or dose not given beside the values. Format: cell-based.

For data set [3], the target named is Estrogen receptor beta (Homo sapiens) (UniProt Q92731). The data set can be described thus: Activity at human ERbeta expressed in HEK293 cells assessed as relative transcription activation by estrogen response element-lucifease assay relative to estradiol. On the set-up: concentration or dose not given beside the values. Format: cell-based.
Chain of Estrogen receptor beta (Homo sapiens) (Q92731 whole entry): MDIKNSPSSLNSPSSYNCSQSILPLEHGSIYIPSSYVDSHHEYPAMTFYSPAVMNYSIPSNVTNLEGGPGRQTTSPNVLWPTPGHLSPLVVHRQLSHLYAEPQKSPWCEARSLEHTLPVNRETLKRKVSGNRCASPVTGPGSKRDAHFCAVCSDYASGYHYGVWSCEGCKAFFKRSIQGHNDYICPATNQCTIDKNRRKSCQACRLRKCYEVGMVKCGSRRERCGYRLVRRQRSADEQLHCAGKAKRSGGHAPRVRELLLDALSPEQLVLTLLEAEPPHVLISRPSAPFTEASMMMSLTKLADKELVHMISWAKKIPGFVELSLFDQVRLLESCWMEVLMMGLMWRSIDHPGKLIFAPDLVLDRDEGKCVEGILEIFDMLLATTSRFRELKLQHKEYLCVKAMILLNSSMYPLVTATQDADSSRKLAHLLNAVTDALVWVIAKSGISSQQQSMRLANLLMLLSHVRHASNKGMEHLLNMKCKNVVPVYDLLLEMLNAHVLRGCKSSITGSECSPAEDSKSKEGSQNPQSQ
For data set [4], the species on record is Homo sapiens. The data set can be described thus: Selectivity ratio of relative transcription activation for human ERbeta to relative transcription activation for human ERalpha.
Data set [5] is described as follows: Hepatotoxicity in Sprague-Dawley rat hepatocyte after 2 hrs. It counts as toxicity, cell-based. The following applies: hepatocytes, read-out: LC50.

On to `C[C@]12CC[C@H](c3ccc(O)cc3F)C[C@H]1CC[C@@H]2O`, for which the values for the Ratio in the data set filed under Homo sapiens [1] and in the data set filed under Homo sapiens [4] were 5 and 3.6, respectively. The Activity in data set [2] is 44.3%; in data set [3], 158%. In addition, in data set [5], the CC50 at 2 h is 250 µM.

Take `C[C@]12CC[C@H](c3ccc(O)cc3Cl)C[C@H]1CC[C@@H]2O`: the Activity in data set [2] was found to be 90%; in data set [3], 189%.

Take `C[C@]12CC[C@H](c3cc(F)c(O)c(F)c3)C[C@H]1CC[C@@H]2O`: the Ratio in the data set filed under Homo sapiens [1] came out at 6.9.

With `C[C@]12CC[C@H](c3ccc(O)c(F)c3)C[C@H]1CC[C@@H]2O`, the Ratio in the data set filed under Homo sapiens [1] was 8.3. Further, the Activity in data set [2] was -9%; in data set [3], 196%.

As to `C[C@]12CC[C@H](c3cc(Cl)c(O)c(Cl)c3)C[C@H]1CC[C@@H]2O`, the Ratio in the data set listed under Homo sapiens [1] came to 0.5. Moreover, the Activity in data set [2] and in data set [3] was 0% in each case.

For the molecule `C#C[C@]1(O)CC[C@@H]2C[C@@H](c3ccc(O)cc3)CC[C@@]21C`, in the data set filed under Homo sapiens [1], the Ratio came to 1.3. In addition, the Activity in data set [2] is -16.9%; in data set [3], 35.9%.

As to `C[C@]12CC=C(c3ccc(O)cc3Cl)C[C@H]1CC[C@@H]2O`, the Ratio in the data set listed under Homo sapiens [1] came to 2.3; in the data set filed under Homo sapiens [4], 1. The Activity in data set [2] is 115%; in data set [3] it was 117%.

In the case of `Cc1cc(O)ccc1[C@H]1CC[C@@]2(C)[C@H](CC[C@@H]2O)C1`, the Ratio in the data set listed under Homo sapiens [1] came out at 11.9. The Activity in data set [2] is -9.7%; in data set [3], 49.2%.

Turning to `Cc1c(O)ccc([C@H]2CC[C@@]3(C)[C@H](CC[C@@H]3O)C2)c1F`, the Ratio in the data set listed under Homo sapiens [1] turned out to be 1.

Regarding `C[C@]12CC[C@H](c3cc(F)c(O)cc3F)C[C@H]1CC[C@@H]2O`, the Ratio in the data set listed under Homo sapiens [1] came out at 8.7.

Turning to `C[C@]12CC[C@@H](c3ccc(O)cc3)C[C@H]1CC[C@@H]2O`, the CC50 at 2 h in data set [5] was 300 µM.

`C[C@]12CC[C@H](c3ccc(O)cc3)C[C@H]1CC[C@@H]2O`: the Ratio in the data set filed under Homo sapiens [1] came out at 14.6; in the data set filed under Homo sapiens [4], 39. Also, the Activity turned out to be 4.2% in data set [2] and 164% in data set [3]. The CC50 at 2 h in data set [5] is 320 µM.

Take `C[C@]12CC[C@H](c3ccc(O)cc3)C[C@H]1CCC2=O`: the Ratio in the data set listed under Homo sapiens [1] turned out to be 14.

Turning to `C[C@]12CC[C@@H]3c4ccc(O)cc4CC[C@H]3[C@@H]1CC[C@@H]2O` [ESTRADIOL], in data set [5], the CC50 at 2 h is 400 µM.

For `C[C@]12CC[C@H](c3cc(F)c(O)c(F)c3F)C[C@H]1CC[C@@H]2O`, the Ratio in the data set filed under Homo sapiens [1] was determined as 9.3; in the data set listed under Homo sapiens [4], 7.9. Also, the figures for the Activity in data set [2] and in data set [3] were 12.8% and 95.4%, respectively. Moreover, the CC50 at 2 h in data set [5] was greater than 600 µM.

Regarding `C[C@]12CCC(c3ccc(O)cc3Cl)=C[C@H]1CC[C@@H]2O`, the values for the Ratio in the data set filed under Homo sapiens [1] and in the data set filed under Homo sapiens [4] were 1.7 and 1.3, respectively. For the same molecule, the figures for the Activity in data set [2] and in data set [3] were 98.6% and 127%, respectively.

On to `C[C@]12CC[C@H](c3ccc(O)c(F)c3F)C[C@H]1CC[C@@H]2O`, for which the figures for the Ratio in the data set listed under Homo sapiens [1] and in the data set filed under Homo sapiens [4] were 9.3 and 8.3, respectively. Moreover, the Activity in data set [2] is 18.3%; in data set [3], 151%. Moreover, the CC50 at 2 h in data set [5] came to 155 µM.

Turning to `Cc1c(O)ccc([C@H]2CC[C@@]3(C)[C@H](CC[C@@H]3O)C2)c1C`, the Ratio in the data set listed under Homo sapiens [1] was determined as 2.8.
